For one assay, the target named is T1, Human recombinant p38α (Homo sapiens, UniProt Q16539).
T1 construct: c-myc (N); 6His (N); made in house; host or cells: E. coli (PET vectors)
Kind of assay: In vitro enzyme assay, p38α kinase inhibition. In kind it is biochemical. Particulars: activated p38α, Myelin Basic Protein substrate, 33P ATP. Here is the method: The ability test compounds to inhibit the enzyme p38 kinase was assessed. Activity of the test compound against each of the p38α and […] isoforms of the enzyme was determined.
Human recombinant MKK6 (GenBank Accession Number G1209672) was isolated from Image clone 45578 (Genomics, 1996, 33, 151) and utilised to produce protein in the form of a GST fusion protein in a pGEX vector using analogous procedures to those disclosed by J. Han et al., Journal of Biological Chemistry, 1996, 271, 2886-2891. p38α (GenBank Accession Number G529039) and p38β (GenBank Accession Number G1469305) were isolated by PCR amplification of human lymphoblastoid cDNA (GenBank Accession Number GM1416) and human foetal brain cDNA [synthesised from mRNA (Clontech, catalogue no. 6525-1) using a Gibco superscript cDNA synthesis kit] respectively using oligonucleotides designed for the 5′ and 3′ ends of the human p38α and p38β genes using analogous procedures to those described by J. Han et al., Biochimica et Biophysica Acta, 1995, 1265, 224-227 and Y. Jiang et al., Journal of Biological Chemistry, 1996, 271, 17920-17926.
Both p38 protein isoforms were expressed in E. coli in PET vectors. Human recombinant p38α and p38β isoforms were produced as 5′ c-myc, 6His tagged proteins. Both MKK6 and the p38 proteins were purified using standard protocols: the GST MKK6 was purified using a glutathione sepharose column and the p38 proteins were purified using nickel chelate columns.
The p38 enzymes were activated prior to use by incubation with MKK6 for 3 hours at 30° C. The unactivated E. coli-expressed MKK6 retained sufficient activity to fully activate both isoforms of p38. For p38α, the activation incubate comprised p38α (50 μl of 10 mg/ml), MKK6 (5 μl of 12 mg/ml), ‘Kinase buffer’ [550 μl; pH 7.4 buffer comprising Tris HCl (50 mM), EGTA (0.1 mM), sodium orthovanadate (0.1 mM) and (1-mercaptoethanol (0.1%)], Mg [75 μl of 100 mM Mg(OCOCH3)2] and ATP (75 μl of 1 mM). The activation incubate for p38β was similar to the above except containing […] enzyme (82 μl at 3.05 mg/ml) and 518 μl “Kinase buffer”. p38α and p38β activation incubates were either used fresh or aliquoted and stored at −80° C.
The test compound was solubilised in DMSO (10 mM) and 1:3 serial dilutions in DMSO carried out in polypropylene plates (Costar 3365). Compound dilutions were then diluted 1:10 in “Kinase buffer” and 10 μl transferred to a microtiter assay plate (Costar 3596). Control wells contained 10 μl (1:10 dilution in kinase buffer) DMSO. ‘Kinase Assay Mix’ [[…]; comprising Myelin Basic Protein (Sigma M-1891; 0.5 ml of a 6.66 mg/ml solution in “Kinase buffer”), activated p38α enzyme (3.8 μl) and ‘Kinase Buffer’ (2.55 ml)] was then added. Control wells on each plate either contained the above “Kinase Assay Mix” (n=6 replicates) or contained “Kinase Assay Mix” in which the activated p38 enzyme was replaced by Kinase buffer (n=6 replicates). ‘Labelled ATP’ was then added to all wells […]; comprising 50 μM ATP, 5 μCi ^33P ATP (Amersham International cat. no. AH9968) and 50 mM Mg(OCOCH3)2]. For p38β, 23 μl activated p38β enzyme and “Kinase buffer” (2.53 ml) were included in the “Kinase Assay Mix”. The final concentration of test compound was 2.4 μM-0.001 μM (n=2 replicates). Microtiter plates were incubated at ambient temperature (with gentle agitation) for 60 minutes and the reaction stopped by addition of 20% trichloroacetic acid (TCA) (50 μl). The precipitate protein was captured onto filter plates (PerkinElmer 6005174) using a Packard Filtermate harvester (2% TCA wash) which was then dried overnight and 25 μl MICROSCINT O (Packard O6013611) added to each well. Plates were counted on a Top Count scintillation counter. Dose response curves were generated using an in house automated data analysis package and an Origin curve fitting package.

The subject of assay [1] is TNFα production in human whole blood. Kind of assay: Human whole blood assay, inhibition of LPS-stimulated TNFα production. Particulars: LPS 10 μg/ml, 6 hours, TNFα by ELISA. In kind it is cell-based. As to the method: [formula] (ii) Human Whole Blood
The ability of a test compound to inhibit TNFα production was also assessed in a human whole blood assay. Human whole blood secretes TNFα when stimulated with LPS.
Heparinised (10 units/ml) human blood was obtained from volunteers. 160 μl whole blood was added to 96 well round-bottom plates (Corning 3799). Compounds were solubilised in DMSO at a concentration of 10 mM, diluted 1:100 in “culture medium” [RPMI 1640 medium (Sigma) containing 50 units/ml penicillin, 50 μg/ml streptomycin and 2 mM glutamine] and subsequently serial dilutions were made in culture medium containing 1% DMSO. 20 μl of each test concentration was added to appropriate wells (triplicate cultures)(final concentration dose range of 10 μM-0.0001 μM). 20 μl of RPMI culture medium containing 1% DMSO was added to control wells.
Plates were incubated for 30 minutes at 37° C. (humidified incubator), prior to addition of 20 μl LPS (final concentration 10 μg/ml). Culture medium was added to control wells. Six “LPS alone” and six “medium alone” controls were included on each plate. A known TNFα synthesis/secretion inhibitor was included in each test. Plates were incubated for 6 hours at 37° C. (humidified incubator). Plates were centrifuged (2000 rpm for 10 minutes) and 80 μl plasma removed and stored at −80° C. (Corning 3799 plates). TNFα levels were measured by ELISA using paired antibodies from R&D Systems (catalogue nos. MAB610 and BAF210).
On the technique in general: An ELISA detects its analyte on a solid surface through an enzyme-linked reagent.

Structures are written as SMILES.

T1 sequence (Q16539 whole entry): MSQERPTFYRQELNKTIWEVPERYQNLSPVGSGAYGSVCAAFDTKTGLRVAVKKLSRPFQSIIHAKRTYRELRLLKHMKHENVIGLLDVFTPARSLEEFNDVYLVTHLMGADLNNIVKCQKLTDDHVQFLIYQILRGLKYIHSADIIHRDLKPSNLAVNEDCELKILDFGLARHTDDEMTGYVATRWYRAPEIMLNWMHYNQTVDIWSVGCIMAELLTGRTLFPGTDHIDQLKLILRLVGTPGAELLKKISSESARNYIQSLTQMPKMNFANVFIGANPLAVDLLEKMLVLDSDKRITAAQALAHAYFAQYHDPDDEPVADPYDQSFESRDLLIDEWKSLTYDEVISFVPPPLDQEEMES

In the case of `Cc1ccc(C(=O)NC2CC2)cc1NC(=O)c1ccc(OCc2ccccn2)c(F)c1` [5[y], N-{5-[(cyclopropylamino)carbonyl]-2-methylphenyl}-3-fluoro-4-(pyridin-2-ylmethoxy)benzamide], the IC50 – broadly, the point on the concentration scale where inhibition reaches its midpoint – at Human recombinant p38α was determined as 6 nM; in assay [1], 140 nM.
For `Cc1ccc(C(=O)NC2CC2)cc1NC(=O)c1ccc(OCc2cscn2)c(F)c1` [5[ac], N-{5-[(cyclopropylamino)carbonyl]-2-methylphenyl}-3-fluoro-4-(1,3-thiazol-4-ylmethoxy)benzamide], in that order: 7 nM and 70 nM.
Turning to `COc1ccc(C(=O)Nc2cc(C(=O)NC3CCC3)ccc2C)cc1OC` [Comparator Compound X, N-cyclobutyl-3-(3,4-dimethoxybenzamido)-4-methylbenzamide, reference compound], the IC50 is 4400 nM at Human recombinant p38α and over 10000 nM in assay [1].
Consider `Cc1ccc(C(=O)NC2CC2)cc1NC(=O)c1ccc(OCc2cn3ccccc3n2)cc1` [5[e], N-cyclopropyl-3-{[4-(imidazo[1,2-a]pyridin-2-ylmethoxy)benzoyl]amino}-4-methylbenzamide], for which the results for the half-maximal inhibitory concentration (IC50) (on Human recombinant p38α; in assay [1]) were 10 nM and 520 nM, respectively.
In the same order, the values of `Cc1ccc(C(=O)NC2CC2)cc1NC(=O)c1ccc(OCc2ncccc2C)cc1` [Example 8, N-cyclopropyl-4-methyl-3-({4-[(3-methylpyridin-2-yl)methoxy]benzoyl}amino)benzamide] are 59 nM and 1800 nM.
On to `Cc1nc(COc2ccc(C(=O)Nc3cc(C(=O)NC4CC4)ccc3C)cc2F)cs1` [5[z], N-{5-[(cyclopropylamino)carbonyl]-2-methylphenyl}-3-fluoro-4-[(2-methyl-1,3-thiazol-4-yl)methoxy]benzamide], for which the IC50 is 7 nM on Human recombinant p38α and 300 nM in assay [1].
In the same order, the values of `Cc1ccc(C(=O)NC2CC2)cc1NC(=O)c1cnc(OCc2nccs2)nc1` [23[a], N-{5-[(cyclopropylamino)carbonyl]-2-methylphenyl}-2-(1,3-thiazol-2-ylmethoxy)pyrimidine-5-carboxamide] are 170 nM and 1700 nM.
